Activity calls are given as the source filed them. The rule behind the calls is not given here.

11 compounds from ChEMBL document CHEMBL2417435, “The discovery of potent blockers of the canonical transient receptor channels, TRPC3 and TRPC6, based on an anilino-thiazole pharmacophore” (Bioorg Med Chem Lett, 2013) can be followed below.

For data set [1], the target named is T1, Short transient receptor potential channel 6 (Homo sapiens, UniProt Q9Y210).
T1 sequence (Q9Y210 whole entry): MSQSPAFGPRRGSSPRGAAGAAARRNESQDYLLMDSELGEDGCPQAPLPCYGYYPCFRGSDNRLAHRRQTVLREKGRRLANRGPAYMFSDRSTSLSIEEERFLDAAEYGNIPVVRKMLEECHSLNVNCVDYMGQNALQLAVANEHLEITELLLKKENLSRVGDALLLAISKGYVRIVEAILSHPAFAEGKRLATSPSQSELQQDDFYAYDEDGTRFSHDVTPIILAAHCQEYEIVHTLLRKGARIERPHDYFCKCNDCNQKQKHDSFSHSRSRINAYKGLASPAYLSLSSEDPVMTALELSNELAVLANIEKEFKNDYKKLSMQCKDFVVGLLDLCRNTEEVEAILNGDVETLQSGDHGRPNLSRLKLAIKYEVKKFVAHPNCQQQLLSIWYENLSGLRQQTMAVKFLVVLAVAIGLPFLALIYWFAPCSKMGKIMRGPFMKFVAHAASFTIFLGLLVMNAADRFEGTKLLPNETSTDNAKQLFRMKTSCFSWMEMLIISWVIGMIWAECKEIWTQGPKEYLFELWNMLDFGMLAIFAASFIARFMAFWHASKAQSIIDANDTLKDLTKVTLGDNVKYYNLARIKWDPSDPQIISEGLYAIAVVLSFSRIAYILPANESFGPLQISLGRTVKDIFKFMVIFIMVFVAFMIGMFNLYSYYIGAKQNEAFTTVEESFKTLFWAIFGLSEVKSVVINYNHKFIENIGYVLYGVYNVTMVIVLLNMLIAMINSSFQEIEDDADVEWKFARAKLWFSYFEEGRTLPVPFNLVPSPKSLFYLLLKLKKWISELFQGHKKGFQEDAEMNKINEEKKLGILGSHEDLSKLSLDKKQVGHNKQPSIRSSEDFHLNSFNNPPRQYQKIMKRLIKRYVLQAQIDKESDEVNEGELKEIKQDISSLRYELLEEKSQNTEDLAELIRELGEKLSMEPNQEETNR
The data set is described as follows: Inhibition of human recombinant TRPC6 expressed in HEK293-MSRII cells assessed as carbachol-stimulated Ca2+/Na+ influx after 10 mins by FLIPR assay. The class given is cell-based.

The target in data set [2] is T2, Short transient receptor potential channel 3 (Homo sapiens, UniProt Q13507).
T2 sequence (Q13507 whole entry): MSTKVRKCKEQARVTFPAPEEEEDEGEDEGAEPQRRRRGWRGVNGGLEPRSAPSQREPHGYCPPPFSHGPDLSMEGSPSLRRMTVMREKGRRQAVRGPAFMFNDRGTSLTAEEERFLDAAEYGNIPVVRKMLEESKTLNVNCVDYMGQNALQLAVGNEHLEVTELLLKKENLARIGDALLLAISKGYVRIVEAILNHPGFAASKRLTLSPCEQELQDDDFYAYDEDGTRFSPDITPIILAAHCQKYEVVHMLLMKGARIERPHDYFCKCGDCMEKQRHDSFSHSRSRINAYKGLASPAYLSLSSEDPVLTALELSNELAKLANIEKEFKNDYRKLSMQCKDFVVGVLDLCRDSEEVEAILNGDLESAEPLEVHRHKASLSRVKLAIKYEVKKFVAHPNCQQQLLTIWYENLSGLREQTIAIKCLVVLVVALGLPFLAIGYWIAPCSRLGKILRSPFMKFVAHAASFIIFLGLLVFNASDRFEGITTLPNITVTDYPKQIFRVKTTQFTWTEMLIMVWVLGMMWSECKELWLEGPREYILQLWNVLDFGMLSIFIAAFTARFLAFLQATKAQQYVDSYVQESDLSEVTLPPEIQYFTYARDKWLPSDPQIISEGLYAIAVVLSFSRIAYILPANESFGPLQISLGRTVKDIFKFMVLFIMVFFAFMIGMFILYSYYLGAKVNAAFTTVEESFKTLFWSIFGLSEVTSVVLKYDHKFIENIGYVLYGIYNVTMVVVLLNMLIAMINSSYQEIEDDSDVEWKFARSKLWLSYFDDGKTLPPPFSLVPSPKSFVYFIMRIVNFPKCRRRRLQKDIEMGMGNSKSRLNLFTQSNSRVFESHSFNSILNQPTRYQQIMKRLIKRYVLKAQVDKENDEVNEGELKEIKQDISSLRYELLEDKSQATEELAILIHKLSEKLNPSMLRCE
The data set is described as follows: Inhibition of human recombinant TRPC3 expressed in HEK293-MSRII cells assessed as carbachol-stimulated Ca2+/Na+ influx after 10 mins by FLIPR assay. The format is cell-based.

Data set [3] deals with Rattus norvegicus. Put plainly: Dose normalized AUC in rat at 0.93 mg/kg, iv. The format is ADME, organism-based. On the set-up: dose 0.93 mg/kg, route intravenous. To be noted: in vivo.
Data set [4] can be described thus: Cmax in rat at 0.93 mg/kg, iv. The format is ADME, organism-based. Set-up: dose 0.93 mg/kg, route intravenous. To be noted: in vivo.
Data set [5] relates to Rattus norvegicus. Put plainly: Mean residence time in rat at 0.93 mg/kg, iv. To be noted: in vivo. The format is ADME, organism-based. Set-up: dose 0.93 mg/kg, route intravenous.
Data set [6] in a line: Oral bioavailability in rat at 0.93 mg/kg. The class given is ADME, organism-based. To be noted: in vivo.
For data set [7], the system named is Rattus norvegicus. The data set is described as follows: Volume of distribution at steady state in rat at 0.93 mg/kg, iv. The class given is ADME, organism-based. Set-up: dose 0.93 mg/kg, route intravenous. To be noted: in vivo.
Data set [8] has as its target T3, Short transient receptor potential channel 3 (Homo sapiens) (UniProt Q13507).
T3 sequence (whole entry): T2 sequence (Q13507 whole entry)
Put plainly: Inhibition of human recombinant TRPC3 expressed in HEK293 cells assessed as 1-oleoyl-2-acetyl-glycerol-stimulated current at 0.01 to 0.03 uM by whole cell electrophysiology assay. The format is cell-based.

Data set [9] has as its target T4, Short transient receptor potential channel 6 (Homo sapiens) (UniProt Q9Y210).
T4 sequence (whole entry): T1 sequence (Q9Y210 whole entry)
Put plainly: Inhibition of human recombinant TRPC6 expressed in HEK293 cells assessed as 1-oleoyl-2-acetyl-glycerol-stimulated current at 0.01 to 0.03 uM by whole cell electrophysiology assay. The format is cell-based.

Consider `Cc1ccc(Nc2nc(C(=O)N3CCCCC3c3ccccc3)cs2)cc1` (centres undefined), for which the concentration for half-maximal inhibition (IC50) (in general, the point on the concentration scale where inhibition reaches its midpoint) in [1] stood at 15800 nM; in data set [2] it was 12600 nM.
Regarding `COc1ccc(Nc2nc(C(=O)N3CCC(C)CC3)cs2)cc1`, the IC50 in [1] and in data set [2] was 800 nM each time.
Turning to `CC1CCN(C(=O)c2csc(Nc3ccccc3Cl)n2)CC1`, the results for the 50% inhibitory concentration (IC50) in [1] and in data set [2] were 3160 nM and 6300 nM, respectively.
In the same order, the values of `CC1CCN(C(=O)c2csc(Nc3ccc4c(c3)OCO4)n2)CC1` are 160 nM and 400 nM.
In data set [3], `COc1ccc(Nc2nc(C(=O)N3CCc4ccccc4C3)cs2)cc1` registered an AUC/dose of 0.14 kg·h/L. Besides, in data set [4], the concentration peaked (Cmax) at 250 ng/mL. The MRT – broadly, a mean duration of stay, worked out from the concentration-time curve – in data set [5] stood at 18 min. The concentration for half-maximal inhibition (IC50) in [1] came out at 500 nM; in data set [2] it was 1260 nM. Besides, the bioavailability (in general, the share of a dose that reaches the circulation, judged against a reference dose that is usually intravenous) in data set [6] was found to be 1%. Further, the Vdss (as a rule, the apparent volume that relates the amount in the body to the concentration in plasma or blood) in data set [7] was found to be 0.7 L/kg.
With `CC1CCN(C(=O)c2csc(Nc3ccc(Cl)cc3)n2)CC1`, the inhibition entry in data set [8] and in [9] was “Active” in each case. The IC50 in data set [1] and in [2] was 800 nM in each case.
Turning to `Cc1ccc(Nc2nc(C(=O)N3CCC(C4CCCCC4)CC3)cs2)cc1`, the IC50 in [1] is 4000 nM; in data set [2], 6300 nM.
Turning to `CC1c2ccccc2CCN1C(=O)c1csc(Nc2ccc3c(c2)OCO3)n1` (centres undefined), the concentration for half-maximal inhibition (IC50) in data set [1] was found to be 63 nM; in data set [2] it was 316 nM.
In the same order, the values of `Cc1ccc(Nc2nc(C(=O)N3CCCCC3C)cs2)cc1` (centres undefined) are 630 nM and 800 nM.
The like results for `Cc1sc(Nc2ccc(Cl)cc2F)nc1C(=O)N1CCCC(C)C1C` (racemic) were, in that order, 50 nM and 250 nM.
The like results for `Cc1sc(Nc2ccc3c(c2)OCO3)nc1C(=O)N1CCc2ccccc2C1C` (centres undefined) were, in that order, 32 nM and 316 nM.
